Drawing on ChEMBL document CHEMBL4725419, “Complete Regression of Carcinoma via Combined C-RAF and EGFR Targeted Therapy” (2020), this text covers INH for 1 molecule.

Test [1] is described as follows: Antiproliferative activity against EGFR/C-RAF knockdown human PDAC003T cells harboring K-RAS G12D/TP53 Q136P mutant xenografted in mouse tumor model assessed as inhibition of cell proliferation by MTT assay in presence of erlotinib. The class given is functional.
The next test relates to PANC-1. As to the kind of experiment: Antiproliferative activity against EGFR/C-RAF knockdown human PANC-1 cells harboring K-RAS G12D/TP53 P72R/K129R mutant xenografted in mouse tumor model assessed as inhibition of cell proliferation by MTT assay in presence of erlotinib. Format: functional.
Test [2] in a line: Antiproliferative activity against EGFR/C-RAF knockdown human PDAC013T cells harboring K-RAS G12D/TP53 I254T mutant xenografted in mouse tumor model assessed as inhibition of cell proliferation by MTT assay in presence of erlotinib. The class given is functional. (In general: Xenograft models place foreign cells or tissue in a host animal.)
Test [3] can be described thus: Antiproliferative activity against EGFR/C-RAF knockdown human Panc4 cells harboring K-RAS G12D/TP53 P72R/R28W mutant xenografted in mouse tumor model assessed as inhibition of cell proliferation by MTT assay in presence of erlotinib. Format: functional, Panc-4.
The nature of test [4]: Antiproliferative activity against EGFR/C-RAF knockdown human Panc198 cells harboring K-RAS G12D/TP53 D208V mutant xenografted in mouse tumor model assessed as inhibition of cell proliferation by MTT assay in presence of erlotinib. Format: functional.
Test [5] in a line: Antiproliferative activity against EGFR/C-RAF knockdown human H-PDAC-M-X3 cells harboring K-RAS G12D/TP53 H179Y mutant xenografted in mouse tumor model assessed as inhibition of cell proliferation by MTT assay in presence of erlotinib. The class given is functional.

As for `C#Cc1cccc(Nc2ncnc3cc(OCCOC)c(OCCOC)cc23)c1` [ERLOTINIB], the INH in test [1] came out at 11.7 µM; in the test with PANC-1, 6.1 µM; in test [2], 2.05 µM; in test [3], 2.82 µM; in test [4], 32.8 µM; in test [5] it was 24.5 µM.
